# Laboratory results: ChEMBL document CHEMBL3877275, “Dihydroorotate dehydrogenase: A drug target for the development of antimalarials” (Eur J Med Chem, 2017)
# pIC50: −log10 of the molar value.
# Assays:
# [1] = Inhibition of Plasmodium falciparum DHODH expressed in Escherichia coli using L-dihydroorotate as substrate by DCIP-based spectrophotometric method
# [2] = Inhibition of Plasmodium falciparum DHODH using L-dihydroorotate as substrate after 20 mins by DCIP-based assay
# [3] = Inhibition of Plasmodium falciparum DHODH
# [4] = Selectivity ratio of IC50 for human DHODH to IC50 for Plasmodium falciparum DHODH
# Plasmodium falciparum = assay: Antiparasitic activity against Plasmodium falciparum NF54 infected in human erythrocytes by [3H]-hypoxanthine incorporation assay; format: functional, cell-based
smiles,measurement,setting,value
Cc1cc(Nc2cc(F)c(C(F)(F)F)c(F)c2)n2nc(C(C)(F)F)nc2n1,pIC50,[1],7.92
Cc1cc(Nc2ccc(C(F)(F)F)c(F)c2)n2nc(C(F)(F)F)nc2n1,pIC50,[1],7.46
Cc1cc(Nc2ccc(C(F)(F)F)cc2)n2ccnc2n1,pIC50,[1],6.11
COc1ccc2c(c1)ncn2-c1ccc(C(=O)NC2CC2)s1,pIC50,[2],7.66
Cc1c(C(=O)Nc2cc(Cl)cc(Cl)c2)cccc1[N+](=O)[O-],pIC50,[3],6.10 to 7.70
same,Ratio IC50,[4],70 to 12500
same,pIC50,Plasmodium falciparum,4.92 to 5.30
COc1cccc2c1ncn2-c1ccc(C(=O)NC2CC2)s1,pIC50,[2],7.36
Cc1cc(Nc2ccc(C(F)(F)F)cc2)n2nc(C(F)(F)F)nc2n1,pIC50,[1],7.46
O=C(Nc1ccc(Cl)cc1Cl)c1ccc2ccccc2c1,pIC50,[3],6.10 to 7.70
same,Ratio IC50,[4],70 to 12500
same,pIC50,Plasmodium falciparum,4.92 to 5.30
CCOC(=O)C(=CNc1cccc(N(C)C)c1)C(=O)OCC,pIC50,Plasmodium falciparum,4.92 to 5.30
Cc1cc(Nc2cc(F)c(C(F)(F)F)c(F)c2)n2nc(C(F)(F)F)nc2n1,pIC50,[1],7.66
N#Cc1cccc2c1ncn2-c1ccc(C(=O)NC2CC2)s1,pIC50,[2],7.30
COc1ccccc1NC(=O)Nc1cccc2ccccc12,pIC50,[3],6.10 to 7.70
same,Ratio IC50,[4],70 to 12500
same,pIC50,Plasmodium falciparum,4.92 to 5.30
